Here are results for 27 compounds from patent US20260274867A1, “PYRIDO[4,3-D]PYRIMIDINE DERIVATIVES AS MUTANT KRAS G12C INHIBITORS FOR THE TREATMENT OF CANCER” (Frontier Medicines Corporation, priority 2023, published 2026).

A value given as a limit tells only on which side of the number the result lay.

The target in this test is T1, KRAS G12C (GMPPNP-loaded, Cys-light, amino acids 1-169) and cRAF Ras-binding domain interaction (Homo sapiens, UniProt P01116, C118S/C51S/C80L/G12C).
T1 construct: truncated version comprising amino acids 1-169
T1 sequence (P01116 1-169 isoform P01116-2 G12C/C51S/C80L/C118S): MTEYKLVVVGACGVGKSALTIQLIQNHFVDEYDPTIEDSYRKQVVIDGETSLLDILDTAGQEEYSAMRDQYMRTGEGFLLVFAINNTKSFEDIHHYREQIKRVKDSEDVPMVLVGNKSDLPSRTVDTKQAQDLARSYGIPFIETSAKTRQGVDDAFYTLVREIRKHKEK
Nature of the test: Inhibition of KRAS G12C and cRAF binding (AlphaScreen). The note with it: KRAS G12C preloaded with GMPPNP, 2 hours compound incubation, room temperature. How it is done: The AlphaScreen technology was used to determine IC50s for compound inhibition of KRAS G12C (present as the Cys-light (C51S, C80L and C118S), truncated version comprising amino acids 1-169) and cRAF interaction. Compounds were diluted in 100% DMSO and each compound concentration was spotted at 200 nl/well onto low volume, white 384 well plates. The KRAS G12C contained a biotin-AviTag and the cRaf, as Ras-binding domain (amino acids 50-131, RBD), was GST-tagged. KRAS G12C was preloaded with the GTP analogue Guanosine 5′-[…] (GMPPNP). The KRAS G12C was diluted in 25 mM Hepes, pH 7.4, 150 mM NaCl, 5 mM MgCl2, 0.01% TritonX-100 and 10 μM GMPPNP and added at 10 ul/well to compound-spotted plates resulting in a DMSO concentration of 2%. Plates were incubated for 2 hours. A mixture of RBD and the AlphaScreen streptavidin donor and glutathione acceptor beads diluted in 25 mM Hepes, pH 7.4, 150 mM NaCl, 5 mM MgCl2, 0.01% TritonX-100 and 2% DMSO was then added at 10 ul/well and incubated for 60-90 minutes before the samples were read for emission at 570 nm after excitation of the donor beads at 680 nm. All incubations were performed at room temperature. The final top compound concentration was 50 μM with 1:3 titrations for 10-point dose response curves. Final assay conditions were 0.5 nM KRAS G12C, 0.75 nM RBD and 5 μg/ml each of AlphaScreen donor and acceptor beads. IC50s were determined using nonlinear regression fit of [inhibitor] vs. response (4 parameters).
A counter assay was also set up to rule out inhibitors of the AlphaScreen technology itself. Compound plates were incubated for 2 hours as above with buffer only. The AlphaScreen beads were added as above except biotin-AviTag-GST was substituted for the RBD. Samples were read and analyzed as above.
For orientation: Bead proximity is the source of the signal in Alpha formats.

Usually IC50 stands for the concentration at which inhibition is half-maximal. A higher IC50 goes with weaker potency in that assay. Turning to `Cc1cc(/C=C(\F)C(=O)N2CCN(c3nc(OC[C@@]45CCCN4C[C@H](F)C5)nc4c(F)c(-c5cccc(Cl)c5C5CC5)ncc34)C[C@@H]2CC#N)nc(C)n1` [Compound 32, 2-((S)-4-(7-(3-chloro-2-cyclopropylphenyl)-8-fluoro-2-(((2R,7aS)-2-fluorotetrahydro-1H-pyrrolizin-7a(5H)-yl)methoxy)pyrido[4,3-d]pyrimidin-4-yl)-1-((Z)-3-(2,6-dimethylpyrimidin-4-yl)-2-fluoroacryloyl)piperazin-2-yl)acetonitrile], the IC50 was under 10 nM. Under `Cc1nccc(/C=C(\F)C(=O)N2CCN(c3nc(OC[C@@]45CCCN4C[C@H](F)C5)nc4c(F)c(-c5cccc6cccc(F)c56)ncc34)C[C@@H]2CC#N)n1` [Compound 33] stands under 10 nM; under `Cc1cc(/C=C(\F)C(=O)N2CCN(c3nc(OC[C@@]45CCCN4C[C@H](F)C5)nc4c(F)c(-c5cccc6ccc(F)c(C)c56)ncc34)C[C@@H]2CC#N)nc(C)n1` [Compound 34], under 10 nM; under `Cc1cc(/C=C(\F)C(=O)N2CCN(c3nc(OC[C@@]45CCCN4C[C@H](F)C5)nc4c(F)c(-c5cccc6ccc(F)c(Cl)c56)ncc34)C[C@@H]2CC#N)nc(C)n1` [Compound 35], under 10 nM.

Consider `Cc1nccc(/C=C(\F)C(=O)N2CC[C@H](O)[C@@H](N(C)c3nc(OC[C@@]45CCCN4C[C@H](F)C5)nc4c(F)c(-c5cccc6cccc(Cl)c56)ncc34)C2)n1` [Compound 36], for which the concentration for half-maximal inhibition (IC50) lay in the range of 100 to 500 nM. In turn, `Cc1nccc(/C=C(\F)C(=O)N2CC[C@@H](N(C)c3nc(OC[C@@]45CCCN4C[C@H](F)C5)nc4c(F)c(-c5cccc6cccc(Cl)c56)ncc34)C2)n1` [Compound 37, (Z)-1-((R)-3-((7-(8-chloronaphthalen-1-yl)-8-fluoro-2-(((2R,7aS)-2-fluorotetrahydro-1H-pyrrolizin-7a(5H)-yl)methoxy)pyrido[4,3-d]pyrimidin-4-yl)(methyl)amino)pyrrolidin-1-yl)-2-fluoro-3-(2-methylpyrimidin-4-yl)prop-2-en-1-one] gave an IC50 of under 10 nM. In the case of `Cc1nccc(/C=C(\F)C(=O)N2CC[C@@H](N(C)c3nc(OC[C@@]45CCCN4C[C@H](F)C5)nc4c(F)c(-c5cccc6ccc(F)c(F)c56)ncc34)C2)n1` [Compound 38], the IC50 is under 10 nM. `Cc1nccc(/C=C(\F)C(=O)N2CC[C@@H](N(C)c3nc(OC[C@@]45CCCN4C[C@H](F)C5)nc4c(F)c(-c5cccc(Cl)c5C5CC5)ncc34)C2)n1` [Compound 39] showed a half-maximal inhibitory concentration (IC50) of under 10 nM.

Take `Cc1nccc(/C=C(\F)C(=O)N2CC(CN(C)c3nc(OC[C@@]45CCCN4C[C@H](F)C5)nc4c(F)c(-c5cccc6cccc(Cl)c56)ncc34)C2)n1` [Compound 40]: the concentration for half-maximal inhibition (IC50) was under 10 nM.

In turn, `Cc1cc(/C=C(\F)C(=O)N2CC[C@@H](N(C)c3nc(OC[C@@]45CCCN4C[C@H](F)C5)nc4c(F)c(-c5cccc6ccc(F)c(F)c56)ncc34)C2)nc(C)n1` [Compound 41, (Z)-1-((R)-3-((7-(7,8-difluoronaphthalen-1-yl)-8-fluoro-2-(((2R,7aS)-2-fluorotetrahydro-1H-pyrrolizin-7a(5H)-yl)methoxy)pyrido[4,3-d]pyrimidin-4-yl)(methyl)amino)pyrrolidin-1-yl)-3-(2,6-dimethylpyrimidin-4-yl)-2-fluoroprop-2-en-1-one] gave an IC50 of under 10 nM. Under `C#Cc1c(F)ccc2cccc(-c3ncc4c(N(C)[C@@H]5CCN(C(=O)/C(F)=C/c6ccnc(C)n6)C5)nc(OC[C@@]56CCCN5C[C@H](F)C6)nc4c3F)c12` [Compound 42] stands under 10 nM; under `Cc1nccc(/C=C(\F)C(=O)N2CC[C@@H](N(C)c3nc(OC[C@@]45CCCN4C[C@H](F)C5)nc4c(F)c(-c5cccc(Cl)c5C(F)(F)F)ncc34)C2)n1` [Compound 43], under 10 nM; under `C#Cc1c(F)ccc2cccc(-c3ncc4c(N(C)[C@@H]5CCN(C(=O)/C(F)=C/c6cc(C)nc(C)n6)C5)nc(OC[C@@]56CCCN5C[C@H](F)C6)nc4c3F)c12` [Compound 44, (Z)-3-(2,6-dimethylpyrimidin-4-yl)-1-((R)-3-((7-(8-ethynyl-7-fluoronaphthalen-1-yl)-8-fluoro-2-(((2R,7aS)-2-fluorotetrahydro-1H-pyrrolizin-7a(5H)-yl)methoxy)pyrido[4,3-d]pyrimidin-4-yl)(methyl)amino)pyrrolidin-1-yl)-2-fluoroprop-2-en-1-one], under 10 nM. Then `CCc1c(F)ccc2cccc(-c3ncc4c(N(C)[C@@H]5CCN(C(=O)/C(F)=C/c6ccnc(C)n6)C5)nc(OC[C@@]56CCCN5C[C@H](F)C6)nc4c3F)c12` [Compound 45], with under 10 nM; and `Cc1cc(/C=C(\F)C(=O)N2CC[C@@H](N(C)c3nc(OC[C@@]45CCCN4C[C@H](F)C5)nc4c(F)c(-c5cccc(Cl)c5C5CC5)ncc34)C2)nc(C)n1` [Compound 46, (Z)-1-((R)-3-((7-(3-chloro-2-cyclopropylphenyl)-8-fluoro-2-(((2R,7aS)-2-fluorotetrahydro-1H-pyrrolizin-7a(5H)-yl)methoxy)pyrido[4,3-d]pyrimidin-4-yl)(methyl)amino)pyrrolidin-1-yl)-3-(2,6-dimethylpyrimidin-4-yl)-2-fluoroprop-2-en-1-one], with under 10 nM; and `Cc1cc(/C=C(\F)C(=O)N2CC[C@@H](N(C)c3nc(OC[C@@]45CCCN4C[C@H](F)C5)nc4c(F)c(-c5cccc(Cl)c5C(F)(F)F)ncc34)C2)nc(C)n1` [Compound 47], with under 10 nM.

In turn, `COc1nc(N(C)[C@@H]2CCN(C(=O)/C(F)=C/c3cc(C)nc(C)n3)C2)c2cnc(-c3cccc4ccc(F)c(F)c34)c(F)c2n1` [Compound 48] displayed a 50% inhibitory concentration (IC50) of at least 500 nM.

`C#Cc1c(F)ccc2cccc(-c3ncc4c(N5CCN(C(=O)/C(F)=C/c6cc(C)nc(C)n6)[C@@H](CC#N)C5)nc(OC)nc4c3F)c12` [Compound 49, (S,Z)-2-(1-(3-(2,6-dimethylpyrimidin-4-yl)-2-fluoroacryloyl)-4-(7-(8-ethynyl-7-fluoronaphthalen-1-yl)-8-fluoro-2-methoxypyrido[4,3-d]pyrimidin-4-yl)piperazin-2-yl)acetonitrile] registered an IC50 of 100 to 500 nM. Then `Cc1cc(/C=C(\F)C(=O)N2CC[C@@H](N(C)c3nc(OC[C@@H]4CCCN4C)nc4c(F)c(-c5cccc(Cl)c5C5CC5)ncc34)C2)nc(C)n1` [Compound 50], with 10 to 100 nM. Under `Cc1cc(/C=C(\F)C(=O)N2CC[C@@H](N(C)c3nc(N4CC(N(C)C)C4)nc4c(F)c(-c5cccc(Cl)c5C5CC5)ncc34)C2)nc(C)n1` [Compound 51] stands 100 to 500 nM. On to `Cc1cc(/C=C(\F)C(=O)N2CC[C@@H](N(C)c3nc(OC[C@@H]4CCCN4C)nc4c(F)c(-c5cccc6ccc(F)c(F)c56)ncc34)C2)nc(C)n1` [Compound 52], for which the IC50 was under 10 nM. Under `Cc1cc(/C=C(\F)C(=O)N2CC[C@@H](N(C)c3nc(N4CC(N(C)C)C4)nc4c(F)c(-c5cccc6ccc(F)c(F)c56)ncc34)C2)nc(C)n1` [Compound 53] stands 10 to 100 nM; under `COc1nc(N2CCN(C(=O)/C(F)=C/c3cc(C)nc(C)n3)[C@@H](CC#N)C2)c2cnc(-c3cccc4ccc(F)c(Cl)c34)c(F)c2n1` [Compound 54, (S,Z)-2-(4-(7-(8-chloro-7-fluoronaphthalen-1-yl)-8-fluoro-2-methoxypyrido[4,3-d]pyrimidin-4-yl)-1-(3-(2,6-dimethylpyrimidin-4-yl)-2-fluoroacryloyl)piperazin-2-yl)acetonitrile], at least 500 nM; under `COc1nc(N2CCN(C(=O)/C(F)=C/c3cc(C)nc(C)n3)[C@@H](CC#N)C2)c2cnc(-c3cc(O)cc(Cl)c3C3CC3)c(F)c2n1` [Compound 55, (S,Z)-2-(4-(7-(3-chloro-2-cyclopropyl-5-hydroxyphenyl)-8-fluoro-2-methoxypyrido[4,3-d]pyrimidin-4-yl)-1-(3-(2,6-dimethylpyrimidin-4-yl)-2-fluoroacryloyl)piperazin-2-yl)acetonitrile], under 10 nM. Take `COc1nc(N(C)[C@@H]2CCN(C(=O)/C(F)=C/c3cc(C)nc(C)n3)C2)c2cnc(-c3cc(O)cc(Cl)c3C3CC3)c(F)c2n1` [Compound 56, (R,Z)-1-(3-((7-(3-chloro-2-cyclopropyl-5-hydroxyphenyl)-8-fluoro-2-methoxypyrido[4,3-d]pyrimidin-4-yl)(methyl)amino)pyrrolidin-1-yl)-3-(2,6-dimethylpyrimidin-4-yl)-2-fluoroprop-2-en-1-one]: the IC50 was in the range of 100 to 500 nM. Then `Cc1cc(/C=C(\F)C(=O)N2CCN(c3nc(C)nc4c(F)c(-c5cc(O)cc(Cl)c5C5CC5)ncc34)C[C@@H]2CC#N)nc(C)n1` [Compound 57], with under 10 nM; and `Cc1cc(/C=C(\F)C(=O)N2CCN(c3ncnc4c(F)c(-c5cc(O)cc(Cl)c5C5CC5)ncc34)C[C@@H]2CC#N)nc(C)n1` [Compound 58], with under 10 nM.
